Test results from patent US5015639A, “Substituted benzazepines, their preparation and pharmaceutical compositions containing them” (Schering Corporation, priority 1989, dated 1991).
pKi: −log10 of the molar value.

These compounds were tested against T1, dopamine D-1 receptor (Rattus norvegicus, UniProt P18901) (assay: Competitive inhibition assay vs. 3H-SCH 23390 (dopamine D-1 receptor binding)). Conditions: not given.
T1 construct: Striatal tissue was excised, pooled, and homogenized; tissue Charles River Breeding Laboratories, Mass; (animals); host or cells: striatum of male Sprague-Dawley rats, washed membrane pellet
T1 sequence (P18901 whole entry): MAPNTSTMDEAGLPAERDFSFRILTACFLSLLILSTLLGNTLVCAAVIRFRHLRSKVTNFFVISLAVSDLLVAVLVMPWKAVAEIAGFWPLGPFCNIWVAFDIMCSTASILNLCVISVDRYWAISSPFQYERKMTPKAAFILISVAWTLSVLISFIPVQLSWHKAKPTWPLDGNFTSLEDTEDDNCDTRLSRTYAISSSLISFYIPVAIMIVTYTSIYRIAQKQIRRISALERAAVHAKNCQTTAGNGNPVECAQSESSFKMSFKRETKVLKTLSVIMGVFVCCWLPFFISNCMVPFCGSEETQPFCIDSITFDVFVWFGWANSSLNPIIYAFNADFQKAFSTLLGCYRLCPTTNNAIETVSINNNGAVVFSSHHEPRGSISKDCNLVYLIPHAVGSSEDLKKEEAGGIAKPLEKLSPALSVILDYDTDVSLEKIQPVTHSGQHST
Set-up: species or system Male Sprague-Dawley rat (striatal tissue)
Procedure: (§1) Many compounds capable of effecting reproducible physiological changes in neural tissues are believed to operate by binding at one or more receptor sites.
(§2) Tritiated SCH 23390 and tritiated spiperone (a potent D-2 ligand) were obtained as described in the Billard et al. reference supra and serially diluted in 0.05 M Tris buffer, pH 7.4, as required. A compound of the invention is diluted in 0.05 M Tris buffer, pH 7.4, as required.
(§3) Male Sprague-Dawley rats (200 to 250 g) from Charles River Breeding Laboratories, Mass. were used to obtain brain tissue. The rats were humanely sacrificed and their brains removed and placed on ice. Striatal tissue was excised, pooled, and homogenized (Brinkman Polytron, 10 sec) in 100 volumes (w/v) of ice cold 50 mM Tris buffer, pH 7.4 (at 25° C.). The homogenate was centrifuged at 20,000 xg for 10 min. The resultant pellet was rehomogenized in Tris buffer and centrifuged again. The final pellet was resuspended in 50 mM Tris buffer pH 7.4 containing 120 mM NaCl, 5 mM KCl, 2 mM CaCl2, and 1 mM MgCl2.
(§4) Polypropylene incubation tubes received 100 μl of the individual test compounds at various concentrations dissolved or suspended in 0.05 M Tris, pH 7.4 containing 4 mg/ml methylcellulose, 100 μl of a solution of ^3 H-SCH 23390 in Tris buffer (final reaction mixture concentration =0.3 nM) or 100 μl of a solution of 3H-spiperone in Tris buffer (final concentration =0.2 nM) and 800 μl of tissue suspension (ca. 3 mg/assay). Tubes were incubated at 37° C. for 15 minutes and rapidly vacuum filtered through Whatman GF/B filters and rinsed 4 times with 4 ml of ice cold 50 mM Tris buffer, pH 7.4. The filters were transferred to scintillation vials, equilibated with 10 ml of scintillant (Scintosol, Isolab, Inc.) for 16 hours at 25° C. and the radioactivity determined in a liquid scintillation counter. Ki values were determined as described by Billard et al. using the relationship Ki =IC50 /(1+([L]/KD)) wherein IC50 =concentration of test drug necessary to displace 50% of specifically bound ^3 H-Sch 23390, [L]=concentration of radioligand used in the assay, and KD =dissociation constant.

| SMILES | pKi |
| --- | --- |
| COC1CN(C)CCc2cc(Cl)c(O)cc21 (stereo not shown) [Compound 1, 8-chloro-5-methoxy-3-methyl-2,3,4,5-tetrahydro-lH-3-benzazepine-7-ol] | 7.27 |
| CCOC1CN(C)CCc2cc(Cl)c(O)cc21 (stereo not shown) [Compound 2, 8-chloro-5-ethoxy-3-methyl-2,3,4,5-tetrahydro-lH-3-benzazepine-7-ol] | 7.47 |
| CN1CCc2cc(Cl)c(O)cc2C2(CCCC2)C1 [Compound 15, 8-chloro-7-hydroxy-3-methyl-2,3,4,5-tetrahydrospiro[lH-3-benzazepine-5,5'-cyclopentane]] | 7.72 |

Same assay, conditions: rat striatal homogenate, 0.3 nM 3H-SCH 23390, pH 7.4, 37° C., 15 min; read-out: Ki vs. 3H-SCH 23390

| pKi | SMILES |
| --- | --- |
| 6.42 | CCSC1CNCCc2cc(Cl)c(O)cc21 (stereo not shown) [Compound 3] |
| 7.48 | CN1CCc2cc(Cl)c(O)cc2C(Sc2ccccc2)C1 (stereo not shown) [Compound 5, 8-chloro-3-methyl-5-phenylthio-2,3,4,5-tetrahydro-lH-3-benzazepin-7-ol] |
| 7.19 | CN1CCc2cc(Cl)c(O)cc2C(N2CCCCC2)C1 (stereo not shown) [Compound 6, 8-chloro-3-methyl-5-(1-piperidinyl)-2,3,4,5-tetrahydro-lH-3-benzazepine-7-ol] |
| 8.00 | CN1CCc2cc(Cl)c(O)cc2C(C2CCCCC2)C1 (stereo not shown) [Compound 8, 8-chloro-5-cyclohexyl-3-methyl-2,3,4,5-tetrahydro-lH-3-benzazepine-7-ol] |
| 7.23 | CN1CCc2cc(Cl)c(O)cc2C(OCC(F)(F)F)C1 (stereo not shown) [Compound 9, 8-chloro-5-(2,2,2-trifluoroethoxy)-3-methyl-2,3,4,5-tetrahydro-lH-3-benzazepine-7-ol] |
| 7.68 | CN1CCc2cc(Cl)c(O)cc2C(C2CCCC2)C1 (stereo not shown) [Compound 12] |

Continued, compound first:

| SMILES | pKi |
| --- | --- |
| CN1CCc2cc(Cl)c(O)cc2C(Oc2ccccc2)C1 (stereo not shown) [Compound 4, 8-chloro-3-methyl-5-phenoxy-2,3,4,5-tetrahydro-lH-3-benzazepin-7-ol] | 7.08 |
| CN1CCc2cc(Cl)c(O)cc2C(OCc2ccccc2)C1 (stereo not shown) [Compound 10, 8-chloro-5-benzyloxy-3-methyl-2,3,4,5-tetrahydro-lH-3-benzazepine-7-ol] | 7.52 |
| CN1CCc2cc(Cl)c(O)cc2C(OCCc2ccccc2)C1 (stereo not shown) [Compound 11, 8-chloro-5-(phenethyloxy)-3-methyl-2,3,4,5-tetrahydro-lH-3-benzazepine-7-ol] | 8.10 |

What follows are compounds tested against T2, D-2 receptor (Rattus norvegicus, UniProt P61169) (assay: Competitive inhibition assay vs. 3H-spiperone (D-2 receptor binding)). Conditions: rat striatal homogenate, 0.2 nM 3H-spiperone, pH 7.4, 37° C., 15 min.
T2 construct: Striatal tissue was excised, pooled, and homogenized; tissue Charles River Breeding Laboratories, Mass; (animals); host or cells: striatum of male Sprague-Dawley rats, washed membrane pellet
T2 sequence (P61169 whole entry): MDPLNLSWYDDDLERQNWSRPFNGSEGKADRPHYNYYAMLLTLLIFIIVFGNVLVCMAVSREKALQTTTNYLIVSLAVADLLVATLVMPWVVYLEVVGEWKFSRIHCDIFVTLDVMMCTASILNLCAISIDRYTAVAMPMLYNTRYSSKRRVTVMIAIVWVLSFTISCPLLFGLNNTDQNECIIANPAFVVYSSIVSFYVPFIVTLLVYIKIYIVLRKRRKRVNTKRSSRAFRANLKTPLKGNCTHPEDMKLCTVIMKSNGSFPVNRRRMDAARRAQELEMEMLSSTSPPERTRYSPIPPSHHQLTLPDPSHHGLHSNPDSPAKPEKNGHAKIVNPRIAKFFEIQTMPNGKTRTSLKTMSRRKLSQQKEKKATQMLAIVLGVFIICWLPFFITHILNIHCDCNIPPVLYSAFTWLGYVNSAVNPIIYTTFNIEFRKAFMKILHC
Set-up: species or system Male Sprague-Dawley rat (striatal tissue)
Procedure: as §1, §2, §3, §4

| pKi | SMILES |
| --- | --- |
| 5.19 | CCSC1CNCCc2cc(Cl)c(O)cc21 (stereo not shown) [Compound 3] |
| 6.40 | CN1CCc2cc(Cl)c(O)cc2C(Sc2ccccc2)C1 (stereo not shown) [Compound 5, 8-chloro-3-methyl-5-phenylthio-2,3,4,5-tetrahydro-lH-3-benzazepin-7-ol] |
| 5.12 | CN1CCc2cc(Cl)c(O)cc2C(N2CCCCC2)C1 (stereo not shown) [Compound 6, 8-chloro-3-methyl-5-(1-piperidinyl)-2,3,4,5-tetrahydro-lH-3-benzazepine-7-ol] |
| 6.24 | CN1CCc2cc(Cl)c(O)cc2C(C2CCCCC2)C1 (stereo not shown) [Compound 8, 8-chloro-5-cyclohexyl-3-methyl-2,3,4,5-tetrahydro-lH-3-benzazepine-7-ol] |
| 4.83 | CN1CCc2cc(Cl)c(O)cc2C(OCC(F)(F)F)C1 (stereo not shown) [Compound 9, 8-chloro-5-(2,2,2-trifluoroethoxy)-3-methyl-2,3,4,5-tetrahydro-lH-3-benzazepine-7-ol] |
| 5.81 | CN1CCc2cc(Cl)c(O)cc2C(C2CCCC2)C1 (stereo not shown) [Compound 12] |

More lines, now with the values behind:

| SMILES | pKi |
| --- | --- |
| COC1CN(C)CCc2cc(Cl)c(O)cc21 (stereo not shown) [Compound 1, 8-chloro-5-methoxy-3-methyl-2,3,4,5-tetrahydro-lH-3-benzazepine-7-ol] | 5.25 |
| CCOC1CN(C)CCc2cc(Cl)c(O)cc21 (stereo not shown) [Compound 2, 8-chloro-5-ethoxy-3-methyl-2,3,4,5-tetrahydro-lH-3-benzazepine-7-ol] | 5.11 |
| CN1CCc2cc(Cl)c(O)cc2C(Oc2ccccc2)C1 (stereo not shown) [Compound 4, 8-chloro-3-methyl-5-phenoxy-2,3,4,5-tetrahydro-lH-3-benzazepin-7-ol] | 6.21 |
| CN1CCc2cc(Cl)c(O)cc2C(OCc2ccccc2)C1 (stereo not shown) [Compound 10, 8-chloro-5-benzyloxy-3-methyl-2,3,4,5-tetrahydro-lH-3-benzazepine-7-ol] | 5.64 |
| CN1CCc2cc(Cl)c(O)cc2C(OCCc2ccccc2)C1 (stereo not shown) [Compound 11, 8-chloro-5-(phenethyloxy)-3-methyl-2,3,4,5-tetrahydro-lH-3-benzazepine-7-ol] | 5.99 |
| CN1CCc2cc(Cl)c(O)cc2C2(CCCC2)C1 [Compound 15, 8-chloro-7-hydroxy-3-methyl-2,3,4,5-tetrahydrospiro[lH-3-benzazepine-5,5'-cyclopentane]] | 6.07 |

What follows are compounds tested on conditioned avoidance response (CAR) (assay: Conditioned avoidance suppression in rats (Rat CAR)). Conditions: po, lowest dose that significantly (P<0.05) reduced avoidance responding, read-out: Rat CAR, minimal effective dose (MED).
Format: in vivo
Procedure: N. Y. Acad. Sci. 66, 740 (1957)}. A series of experiments was carried out to assess the ability of the compounds of this invention to suppress the conditioned avoidance response (CAR) in rats.
Rats were required to jump onto a platform located 6.75 inches (17.15 cm) above the grid floor of an experimental chamber in response to a 5-second tone to avoid a 10-second foot shock (0.6 ma). Each experimental session consisted of 20 such trials presented at 30-second intervals. A correct CAR is scored whenever the rat jumps onto the platform during the tone (prior to foot shock). An escape response is scored when the rat jumps onto the platform during a shock. A response failure is defined as the lack of an escape response during the 10-second shock period.
Groups of 6-8 rats were trained in two consecutive days (total of 40 trials). Rats that reached criterion on day 2 (correct CARs on 16 or more of the 20 trials) were treated with either a test drug or vehicle on day 3. Suppression of CAR was analyzed statistically using Student's t-test comparing the performances of drug-treated to vehicle-treated rats.

| SMILES | minimal effective dose |
| --- | --- |
| COC1CN(C)CCc2cc(Cl)c(O)cc21 (stereo not shown) [Compound 1, 8-chloro-5-methoxy-3-methyl-2,3,4,5-tetrahydro-lH-3-benzazepine-7-ol] | > 30 mg/kg |
| CCOC1CN(C)CCc2cc(Cl)c(O)cc21 (stereo not shown) [Compound 2, 8-chloro-5-ethoxy-3-methyl-2,3,4,5-tetrahydro-lH-3-benzazepine-7-ol] | > 30 mg/kg |
| CN1CCc2cc(Cl)c(O)cc2C(Oc2ccccc2)C1 (stereo not shown) [Compound 4, 8-chloro-3-methyl-5-phenoxy-2,3,4,5-tetrahydro-lH-3-benzazepin-7-ol] | 10 mg/kg |
| CN1CCc2cc(Cl)c(O)cc2C(Sc2ccccc2)C1 (stereo not shown) [Compound 5, 8-chloro-3-methyl-5-phenylthio-2,3,4,5-tetrahydro-lH-3-benzazepin-7-ol] | > 30 mg/kg |
| CN1CCc2cc(Cl)c(O)cc2C(N2CCCCC2)C1 (stereo not shown) [Compound 6, 8-chloro-3-methyl-5-(1-piperidinyl)-2,3,4,5-tetrahydro-lH-3-benzazepine-7-ol] | 30 mg/kg |
| CN1CCc2cc(Cl)c(O)cc2C(C2CCCCC2)C1 (stereo not shown) [Compound 8, 8-chloro-5-cyclohexyl-3-methyl-2,3,4,5-tetrahydro-lH-3-benzazepine-7-ol] | 30 mg/kg |
| CN1CCc2cc(Cl)c(O)cc2C(OCC(F)(F)F)C1 (stereo not shown) [Compound 9, 8-chloro-5-(2,2,2-trifluoroethoxy)-3-methyl-2,3,4,5-tetrahydro-lH-3-benzazepine-7-ol] | > 30 mg/kg |
| CN1CCc2cc(Cl)c(O)cc2C(OCc2ccccc2)C1 (stereo not shown) [Compound 10, 8-chloro-5-benzyloxy-3-methyl-2,3,4,5-tetrahydro-lH-3-benzazepine-7-ol] | > 30 mg/kg |
| CN1CCc2cc(Cl)c(O)cc2C(OCCc2ccccc2)C1 (stereo not shown) [Compound 11, 8-chloro-5-(phenethyloxy)-3-methyl-2,3,4,5-tetrahydro-lH-3-benzazepine-7-ol] | > 30 mg/kg |
| CN1CCc2cc(Cl)c(O)cc2C(C2CCCC2)C1 (stereo not shown) [Compound 12] | > 30 mg/kg |
| CN1CCc2cc(Cl)c(O)cc2C2(CCCC2)C1 [Compound 15, 8-chloro-7-hydroxy-3-methyl-2,3,4,5-tetrahydrospiro[lH-3-benzazepine-5,5'-cyclopentane]] | > 30 mg/kg |

Same assay, conditions: sc, lowest dose that significantly (P<0.05) reduced avoidance responding, read-out: Rat CAR, minimal effective dose (MED)

| SMILES | minimal effective dose |
| --- | --- |
| COC1CN(C)CCc2cc(Cl)c(O)cc21 (stereo not shown) [Compound 1, 8-chloro-5-methoxy-3-methyl-2,3,4,5-tetrahydro-lH-3-benzazepine-7-ol] | 1 mg/kg |
| CCOC1CN(C)CCc2cc(Cl)c(O)cc21 (stereo not shown) [Compound 2, 8-chloro-5-ethoxy-3-methyl-2,3,4,5-tetrahydro-lH-3-benzazepine-7-ol] | 1 mg/kg |
| CCSC1CNCCc2cc(Cl)c(O)cc21 (stereo not shown) [Compound 3] | < 10 mg/kg |
| CN1CCc2cc(Cl)c(O)cc2C(Sc2ccccc2)C1 (stereo not shown) [Compound 5, 8-chloro-3-methyl-5-phenylthio-2,3,4,5-tetrahydro-lH-3-benzazepin-7-ol] | > 30 mg/kg |
| CN1CCc2cc(Cl)c(O)cc2C(N2CCCCC2)C1 (stereo not shown) [Compound 6, 8-chloro-3-methyl-5-(1-piperidinyl)-2,3,4,5-tetrahydro-lH-3-benzazepine-7-ol] | 3 mg/kg |
| CN1CCc2cc(Cl)c(O)cc2C(C2CCCCC2)C1 (stereo not shown) [Compound 8, 8-chloro-5-cyclohexyl-3-methyl-2,3,4,5-tetrahydro-lH-3-benzazepine-7-ol] | ≤ 1 mg/kg |
| CN1CCc2cc(Cl)c(O)cc2C(OCC(F)(F)F)C1 (stereo not shown) [Compound 9, 8-chloro-5-(2,2,2-trifluoroethoxy)-3-methyl-2,3,4,5-tetrahydro-lH-3-benzazepine-7-ol] | 1 mg/kg |
| CN1CCc2cc(Cl)c(O)cc2C(OCc2ccccc2)C1 (stereo not shown) [Compound 10, 8-chloro-5-benzyloxy-3-methyl-2,3,4,5-tetrahydro-lH-3-benzazepine-7-ol] | 3 mg/kg |
| CN1CCc2cc(Cl)c(O)cc2C(OCCc2ccccc2)C1 (stereo not shown) [Compound 11, 8-chloro-5-(phenethyloxy)-3-methyl-2,3,4,5-tetrahydro-lH-3-benzazepine-7-ol] | 1 mg/kg |
| CN1CCc2cc(Cl)c(O)cc2C(C2CCCC2)C1 (stereo not shown) [Compound 12] | 1 mg/kg |
| CN1CCc2cc(Cl)c(O)cc2C2(CCCC2)C1 [Compound 15, 8-chloro-7-hydroxy-3-methyl-2,3,4,5-tetrahydrospiro[lH-3-benzazepine-5,5'-cyclopentane]] | 1 mg/kg |
